{"source": "patent US20260274922A1", "about": "“SYNTHETIC ESTROGEN RECEPTOR (ER)-DERIVED PEPTIDE” (THE TEXAS A&M UNIVERSITY SYSTEM, priority 2023, published 2026)", "key": {"DKO male mice": {"system": "DKO male mice", "test": "AF1 peptide treatment of liver-specific IRS1 and IRS2 knockout (DKO) mice", "assay_type": "in vivo, mouse", "method": "Animal studies. All animal experiments were performed following procedures approved by the Texas A&M University Institutional Animal Care and Use Committee. Mice are housed at 22-24° C. and maintained on a 12 h light/12 h dark cycle with a standard chow diet (58% calories from carbohydrate, 18% from fat, and 24% from protein, 3.1 kcal/g, with a reduced phytoestrogen content; Teklad Diet) ad libitum. Liver-specific ERα (ERα^LivKO) or ERβ (ERβ^LivKO) knockout mice were generated by crossing ERα or ERβ flox mice (gift from Dr. Yong Xu, Baylor College of Medicine) with Albumin-Cre mice purchased from The Jackson Laboratory (Strain #003574), respectively. Liver IRS1 and IRS2 double knockout (DKO) mice were generated by breeding IRS1 and IRS2 flox (IRS1^L/L::IRS2^L/L) mice with Albumin-Cre mice. Liver IRS1, IRS2, and ERα triple knockout (TKO) mice were generated by crossing DKO mice with ERα^LivKO mice. All mice were on C57B/6J background. Db/db mice were purchased from The Jackson Laboratory (Strain #000697). Female mice at age of 2-month-old underwent a bilateral ovariectomy (OVX) surgery; these mice were used to perform experiments 4 weeks after OVX surgery. All the mice experiments were performed with age- and gender-matched mice with their health status examined daily by the investigators and technicians from Texas A&M University LARR Animal Facility. Littermate controls were used if possible.\n(§1) Glucose and insulin tolerance tests. For glucose tolerance tests, mice were fasted for 16 h and intraperitoneally (i.p.) injected with dextrose (1 g/kg body weight for mice fed with regular diet; 0.5 g/kg body weight for db/db mice or mice fed with HFD). For insulin tolerance tests, mice were fasted for 6 h and i.p. injected with insulin solution (1 U/kg body weight for male mice; 0.75 U/kg body weight for female mice). Blood glucose levels were measured using glucometer at indicated time points.\n(§2) Co-immunoprecipitation and Western blotting analysis. […] Protein bands were detected using a ChemiDoc image system."}, "IRS1": {"target": "T1, IRS1 (Homo sapiens, UniProt P35568)", "T1 sequence (P35568 1-1242)": "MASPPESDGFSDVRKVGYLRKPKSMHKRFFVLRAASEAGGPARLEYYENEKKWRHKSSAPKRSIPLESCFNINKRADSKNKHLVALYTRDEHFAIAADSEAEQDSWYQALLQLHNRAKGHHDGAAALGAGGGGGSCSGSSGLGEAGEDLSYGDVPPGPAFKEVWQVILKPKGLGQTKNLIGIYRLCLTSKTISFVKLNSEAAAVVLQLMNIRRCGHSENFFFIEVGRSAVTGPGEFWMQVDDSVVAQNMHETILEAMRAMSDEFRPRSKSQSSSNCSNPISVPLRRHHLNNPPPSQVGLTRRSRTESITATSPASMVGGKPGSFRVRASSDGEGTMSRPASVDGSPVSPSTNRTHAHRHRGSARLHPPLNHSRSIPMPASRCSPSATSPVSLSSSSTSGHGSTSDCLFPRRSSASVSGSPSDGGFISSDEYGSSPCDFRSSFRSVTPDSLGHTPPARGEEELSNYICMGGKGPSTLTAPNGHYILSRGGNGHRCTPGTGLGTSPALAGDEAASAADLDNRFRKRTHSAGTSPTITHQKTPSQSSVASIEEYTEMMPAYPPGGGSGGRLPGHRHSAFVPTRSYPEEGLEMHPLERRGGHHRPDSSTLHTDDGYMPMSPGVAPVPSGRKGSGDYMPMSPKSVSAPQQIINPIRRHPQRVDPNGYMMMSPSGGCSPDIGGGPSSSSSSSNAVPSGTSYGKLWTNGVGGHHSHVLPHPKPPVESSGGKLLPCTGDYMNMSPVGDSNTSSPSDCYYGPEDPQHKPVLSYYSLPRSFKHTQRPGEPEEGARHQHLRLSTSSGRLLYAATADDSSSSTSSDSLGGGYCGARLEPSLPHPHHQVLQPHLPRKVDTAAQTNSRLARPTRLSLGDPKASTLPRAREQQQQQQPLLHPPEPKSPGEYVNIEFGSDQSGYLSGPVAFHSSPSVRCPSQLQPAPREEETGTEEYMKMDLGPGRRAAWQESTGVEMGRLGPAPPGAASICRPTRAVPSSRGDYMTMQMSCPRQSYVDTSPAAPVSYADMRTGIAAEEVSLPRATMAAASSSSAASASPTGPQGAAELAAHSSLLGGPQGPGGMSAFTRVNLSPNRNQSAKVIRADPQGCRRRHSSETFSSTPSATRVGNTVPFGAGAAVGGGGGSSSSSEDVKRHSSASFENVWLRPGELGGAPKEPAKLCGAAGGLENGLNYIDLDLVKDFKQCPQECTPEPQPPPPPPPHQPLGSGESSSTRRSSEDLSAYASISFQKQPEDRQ", "test": "Effect of AF1 peptide on IRS1 ubiquitination in HEK293T cells", "assay_type": "cell-based", "text": "as §2"}, "12-month-old female mice": {"system": "12-month-old female mice", "test": "AF1 peptide treatment of aging female mice (12-month-old)", "assay_type": "in vivo, mouse", "conditions": "5 mg/kg i.v. twice per week, 5 weeks", "method": "Postmenopause in old women is highly associated with increased risk of diabetes.\nas §1"}}, "note": "Where no end group is shown, it is not given here. The star is where a group is joined. FITC = O=C1OC2(c3ccc(O)cc3Oc3cc(O)ccc32)c2ccc(NC(=S)*)cc21"}
{"sequence": "YGRKKRRQRRRTKASGMALLHEPLNRPQLKIPLERDSSKPAVYNY ({FITC}-YGRKKRRQRRRTKASGMALLHEPLNRPQLKIPLERDSSKPAVYNY) [AF1 peptide]", "values": [{"measurement": "glucose homeostasis", "setting": "DKO male mice; glucose tolerance test", "result": "significantly improved"}, {"measurement": "insulin sensitivity", "setting": "DKO male mice; insulin tolerance test", "result": "significantly improved"}, {"measurement": "insulin-induced AKT phosphorylation in the liver", "setting": "DKO male mice; liver", "result": "could not be rescued"}, {"measurement": "insulin-stimulated AKT phosphorylation in skeletal muscle and eWAT", "setting": "DKO male mice; skeletal muscle and epididymal white adipose tissue", "result": "partially improved"}, {"measurement": "ubiquitination of IRS1", "setting": "IRS1", "result": "attenuated"}, {"measurement": "glucose tolerance", "setting": "12-month-old female mice", "result": "nonsignificant increase"}, {"measurement": "insulin sensitivity", "setting": "12-month-old female mice", "result": "modest improvement"}]}
